Source: patent US11136296B2, “Substituted N-arylethyl-2-arylquinoline-4-carboxamides and use thereof” (Bayer Aktiengesellschaft, priority 2017, dated 2021)

Molecular target: FP receptor (Homo sapiens (Human), UniProt P43088)
Assay: In vitro test of inhibition of human FP receptor activity (PGF2α-induced calcium flux in FP-expressing CHEM1 cells)
Type: cell-based
Conditions: PGF2α-induced (2 nM) calcium flux in FP-expressing CHEM1 cells; some as mean values from multiple determinations
From the text: Table 1 below lists the IC50 values from this assay for individual working examples of the invention (some as mean values from multiple independent individual determinations): […]

Chain of FP receptor (P43088 whole entry): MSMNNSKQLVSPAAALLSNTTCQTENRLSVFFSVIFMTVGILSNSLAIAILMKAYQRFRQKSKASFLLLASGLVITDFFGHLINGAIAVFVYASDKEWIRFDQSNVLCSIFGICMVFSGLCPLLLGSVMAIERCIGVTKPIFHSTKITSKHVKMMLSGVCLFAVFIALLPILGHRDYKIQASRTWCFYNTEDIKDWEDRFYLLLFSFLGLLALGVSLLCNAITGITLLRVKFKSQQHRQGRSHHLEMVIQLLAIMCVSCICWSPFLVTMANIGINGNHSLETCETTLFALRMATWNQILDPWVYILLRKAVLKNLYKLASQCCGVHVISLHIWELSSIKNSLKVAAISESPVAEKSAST

Structure (SMILES)	IC50
Cc1c(-c2ccccc2)nc2ccc(Br)cc2c1C(=O)NCC(CC(=O)O)c1ccccc1 (single isomer, unassigned; (-)) [Example 64, (−)-4-{[(6-Bromo-3-methyl-2-phenylquinolin-4-yl)carbonyl]amino}-3-phenylbutanoic Acid]	340 nM
Cc1c(-c2ccccc2)nc2ccc(Br)cc2c1C(=O)NCC(CC(=O)O)c1ccc(Cl)cc1 (single isomer, unassigned; (-)) [Example 68, (−)-4-{[(6-Bromo-3-methyl-2-phenylquinolin-4-yl)carbonyl]amino}-3-(4-chlorophenyl)butanoic Acid]	> 1000 nM
Cc1ccccc1C(CNC(=O)c1c(C)c(-c2ccccc2)nc2ccc(Br)cc12)CC(=O)O (single isomer, unassigned; (-)) [Example 76, (−)-4-{[(6-Bromo-3-methyl-2-phenylquinolin-4-yl)carbonyl]amino}-3-(2-methylphenyl)butanoic Acid]	23 nM
Cc1c(-c2ccccc2)nc2ccc(Br)cc2c1C(=O)NCC(C)(CC(=O)O)c1ncccc1Cl (single isomer, unassigned; (-)) [Example 85, (−)-4-{[(6-Bromo-3-methyl-2-phenylquinolin-4-yl)carbonyl]amino}-3-(3-chloropyridin-2-yl)-3-methylbutanoic Acid]	16 nM
Cc1c(-c2ccccc2)nc2ccc(Br)cc2c1C(=O)NCC(CC(=O)O)c1c(F)cccc1Cl (single isomer, unassigned; (-)) [Example 88, (−)-4-{[(6-Bromo-3-methyl-2-phenylquinolin-4-yl)carbonyl]amino}-3-(2-chloro-6-fluorophenyl)butanoic Acid]	19 nM
Cc1ccc(C(CNC(=O)c2c(C)c(-c3ccccc3)nc3ccc(Br)cc23)CC(=O)O)cc1 (single isomer, unassigned; (-)) [Example 92, (−)-4-{[(6-Bromo-3-methyl-2-phenylquinolin-4-yl)carbonyl]amino}-3-(4-methylphenyl)butanoic Acid]	320 nM
Cc1c(-c2ccccc2)nc2ccc(Br)cc2c1C(=O)NCC(CC(=O)O)c1ccccc1OC(F)(F)F (single isomer, unassigned; (-)) [Example 100, (−)-4-{[(6-Bromo-3-methyl-2-phenylquinolin-4-yl)carbonyl]amino}-3-[2-(trifluoromethoxy)phenyl]butanoic Acid]	20 nM
Cc1c(-c2ccccc2)nc2ccc(Br)cc2c1C(=O)NCC(CC(=O)O)c1ccccn1 (single isomer, unassigned; (-)) [Example 103, (−)-4-{[(6-Bromo-3-methyl-2-phenylquinolin-4-yl)carbonyl]amino}-3-(pyridin-2-yl)butanoic Acid]	290 nM
Cc1c(-c2ccccc2)nc2ccc(Br)cc2c1C(=O)NCC(CC(=O)O)c1ccccc1C(F)(F)F (single isomer, unassigned; (-)) [Example 107, (−)-4-{[(6-Bromo-3-methyl-2-phenylquinolin-4-yl)carbonyl]amino}-3-[2-(trifluoromethyl)phenyl]butanoic Acid]	51 nM
COc1cccnc1C(CNC(=O)c1c(C)c(-c2ccccc2)nc2ccc(Br)cc12)CC(=O)O (single isomer, unassigned; (-)) [Example 109, (−)-4-{[(6-Bromo-3-methyl-2-phenylquinolin-4-yl)carbonyl]amino}-3-(3-methoxypyridin-2-yl)butanoic Acid]	75 nM
Cc1c(-c2ccccc2)nc2ccc(Br)cc2c1C(=O)NCC(C)(CC(=O)O)c1ccccc1F (single isomer, unassigned; (-)) [Example 116, (−)-4-{[(6-Bromo-3-methyl-2-phenylquinolin-4-yl)carbonyl]amino}-3-(2-fluorophenyl)-3-methylbutanoic Acid]	74 nM
Cc1c(-c2ccccc2)nc2ccc(Br)cc2c1C(=O)NCC(C)(CC(=O)O)c1ccccn1 (single isomer, unassigned; (-)) [Example 119, (−)-4-{[(6-Bromo-3-methyl-2-phenylquinolin-4-yl)carbonyl]amino}-3-methyl-3-(pyridin-2-yl)butanoic Acid]	150 nM
COc1ccccc1C(C)(CNC(=O)c1c(C)c(-c2ccccc2)nc2ccc(Br)cc12)CC(=O)O (single isomer, unassigned; (-)) [Example 122, (−)-4-{[(6-Bromo-3-methyl-2-phenylquinolin-4-yl)carbonyl]amino}-3-(2-methoxyphenyl)-3-methylbutanoic Acid]	460 nM
COc1ccc(F)cc1C(CNC(=O)c1c(C)c(-c2ccccc2)nc2ccc(Br)cc12)CC(=O)O (single isomer, unassigned; (-)) [Example 125, (−)-4-{[(6-Bromo-3-methyl-2-phenylquinolin-4-yl)carbonyl]amino}-3-(5-fluoro-2-methoxyphenyl)butanoic Acid]	97 nM
COc1cccc(F)c1C(CNC(=O)c1c(C)c(-c2ccccc2)nc2ccc(Br)cc12)CC(=O)O (single isomer, unassigned; (-)) [Example 128, (−)-4-{[(6-Bromo-3-methyl-2-phenylquinolin-4-yl)carbonyl]amino}-3-(2-fluoro-6-methoxyphenyl)butanoic Acid]	110 nM
CCOc1ccccc1C(CNC(=O)c1c(C)c(-c2ccccc2)nc2ccc(Br)cc12)CC(=O)O (single isomer, unassigned; (-)) [Example 130, (−)-4-{[(6-Bromo-3-methyl-2-phenylquinolin-4-yl)carbonyl]amino}-3-(2-ethoxyphenyl)butanoic Acid]	320 nM
COc1ccc(F)cc1C(C)(CNC(=O)c1c(C)c(-c2ccccc2)nc2ccc(Br)cc12)CC(=O)O (single isomer, unassigned; (-)) [Example 134, (−)-4-{[(6-Bromo-3-methyl-2-phenylquinolin-4-yl)carbonyl]amino}-3-(5-fluoro-2-methoxyphenyl)-3-methylbutanoic Acid]	800 nM
COc1c(F)cc(F)cc1C(C)(CNC(=O)c1c(C)c(-c2ccccc2)nc2ccc(Br)cc12)CC(=O)O (single isomer, unassigned; (-)) [Example 137, (−)-4-{[(6-Bromo-3-methyl-2-phenylquinolin-4-yl)carbonyl]amino}-3-(3,5-difluoro-2-methoxyphenyl)-3-methylbutanoic Acid]	440 nM
COc1cc(F)ccc1C(C)(CNC(=O)c1c(C)c(-c2ccccc2)nc2ccc(Br)cc12)CC(=O)O (single isomer, unassigned; (-)) [Example 140, (−)-4-{[(6-Bromo-3-methyl-2-phenylquinolin-4-yl)carbonyl]amino}-3-(4-fluoro-2-methoxyphenyl)-3-methylbutanoic Acid]	> 1000 nM
COc1cccc(F)c1C(C)(CNC(=O)c1c(C)c(-c2ccccc2)nc2ccc(Br)cc12)CC(=O)O (single isomer, unassigned; (-)) [Example 144, (−)-4-{[(6-Bromo-3-methyl-2-phenylquinolin-4-yl)carbonyl]amino}-3-(2-fluoro-6-methoxyphenyl)-3-methylbutanoic Acid]	130 nM
Cc1c(-c2ccccc2)nc2ccc(Br)cc2c1C(=O)NC(C)C(CC(=O)O)c1ccccc1Cl (single isomer, unassigned; (-)) [Example 146, (−)-4-{[(6-Bromo-3-methyl-2-phenylquinolin-4-yl)carbonyl]amino}-3-(2-chlorophenyl)pentanoic Acid]	> 1000 nM
Cc1c(-c2ccccc2)nc2ccc(Br)cc2c1C(=O)NC(C)C(CC(=O)O)c1ccccc1Cl (single isomer, unassigned; (-)) [Example 149, (−)-4-{[(6-Bromo-3-methyl-2-phenylquinolin-4-yl)carbonyl]amino}-3-(2-chlorophenyl)pentanoic Acid]	> 1000 nM
Cc1c(-c2ccccc2)nc2ccc(Br)cc2c1C(=O)NCC(CCC(=O)O)c1ccccc1Cl (single isomer, unassigned; (-)) [Example 152, (−)-5-{[(6-Bromo-3-methyl-2-phenylquinolin-4-yl)carbonyl]amino}-4-(2-chlorophenyl)pentanoic Acid]	7.9 nM
Cc1c(-c2ccccc2)nc2ccc(Br)cc2c1C(=O)NCC(C)(CCC(=O)O)c1ccccc1Cl (single isomer, unassigned; (-)) [Example 155, (−)-5-{[(6-Bromo-3-methyl-2-phenylquinolin-4-yl)carbonyl]amino}-4-(2-chlorophenyl)-4-methylpentanoic Acid]	60 nM
Cc1c(-c2ccccc2)nc2ccc(Br)cc2c1C(=O)NCC(CCC(=O)O)c1c(F)cccc1Cl (single isomer, unassigned; (-)) [Example 158, (−)-5-{[(6-Bromo-3-methyl-2-phenylquinolin-4-yl)carbonyl]amino}-4-(2-chloro-6-fluorophenyl)pentanoic Acid]	3.5 nM
Cc1ccccc1C(CCC(=O)O)CNC(=O)c1c(C)c(-c2ccccc2)nc2ccc(Br)cc12 (single isomer, unassigned; (-)) [Example 161, (−)-5-{[(6-Bromo-3-methyl-2-phenylquinolin-4-yl)carbonyl]amino}-4-(2-methylphenyl)pentanoic Acid]	8.2 nM
Cc1c(-c2ccccc2)nc2ccc(Br)cc2c1C(=O)NCC(CCC(=O)O)c1cc(F)ccc1Cl (single isomer, unassigned; (-)) [Example 164, (−)-5-{[(6-Bromo-3-methyl-2-phenylquinolin-4-yl)carbonyl]amino}-4-(2-chloro-5-fluorophenyl)pentanoic Acid]	15 nM
COc1ccccc1C(CCC(=O)O)CNC(=O)c1c(C)c(-c2ccccc2)nc2ccc(Br)cc12 (single isomer, unassigned; (-)) [Example 167, (−)-5-{[(6-Bromo-3-methyl-2-phenylquinolin-4-yl)carbonyl]amino}-4-(2-methoxyphenyl)pentanoic Acid]	26 nM
Cc1c(-c2ccccc2)nc2ccc(Br)cc2c1C(=O)NCC(C)(CCC(=O)O)c1cc(F)ccc1Cl (single isomer, unassigned; (-)) [Example 170, (−)-5-{[(6-Bromo-3-methyl-2-phenylquinolin-4-yl)carbonyl]amino}-4-(2-chloro-5-fluorophenyl)-4-methylpentanoic Acid]	110 nM
